What is called half-life is the time in which the quantity being followed falls by half. A low value points to rapid decline.

A short description of this data set: Evaluation of the plasma half-life for Hydrochlorothiazide for at least 24 hours following administration of Hydrochlorothiazide. Format: ADME, organism-based. Conditions: human; dosed compound id 30, dosed compound name HYDROCHLOROTHIAZIDE, tissue Plasma.

Turning to `NS(=O)(=O)c1cc2c(cc1Cl)NCNS2(=O)=O` [HYDROCHLOROTHIAZIDE], the half-life lay in the range of 5.6 to 14.8 h.

The record behind these values is ChEMBL document CHEMBL3832055, “DailyMed|setid=e57a1fb3-1bf5-4562-982c-52a6f5fb36ed | HYDROCHLOROTHIAZIDE - hydrochlorothiazide tablet | Aphena Pharma Solutions - Tenness ee, LLC”.
